# Laboratory results taken from patent US20070122352A1, “Inhalation Drug Combinations” (GLAXO GROUP LIMITED, priority 2001, published 2007).
# Tested on: HPA axis
# Experiment: 24-hour urinary cortisol excretion as a measure of HPA suppression
# Assay type: in vivo, human
# Conditions: 24 h post-dose urine, single dose, healthy subjects
# Description: The below examples are used to exemplify the present invention and are in no way meant to narrow the scope of the invention. The examples compare the systemic pharmacokinetic and pharmacodynamic of a MDI made up of two drugs, namely, salmeterol and fluticasone propionate combined in a HFA propellant, namely 134a, with individual salmeterol and fluticasone propionate MDIs in a CFC propellant administered individually and with placebo (HFA 134a propellant alone). Healthy human subjects were given either salmeterol and fluticasone propionate in HFA 134a propellant, salmeterol in P11/P12, fluticasone propionate in P11/P12, or a placebo in HFA 134a propellant, in a randomized, single dose, crossover study. Potential side effects such as increased heart rate and QTc interval were measured. The levels of cortisol in the urine were also measured as a measure of HPA suppression. Twenty healthy human subjects were randomized into one of four treatment groups. […] Cortisol levels were determined from 500 μl of urine by automated immunochemiluminescence on the ASC-180 (Bayer Diagnostics) following preliminary extraction of the urine with dichloromethane. […] For untransformed parameters, the 90% (or 95%) confidence interval for the difference in least squares means was expressed as a ratio of the individual mean.
smiles,measurement,value
"CCC(=O)O[C@]1(C(=O)SCF)[C@H](C)C[C@H]2[C@@H]3C[C@H](F)C4=CC(=O)C=C[C@]4(C)[C@@]3(F)[C@@H](O)C[C@@]21C [fluticasone propionate, S-(fluoromethyl)6α,9-difluro-11β,17-dihydroxy-16α-methyl-3-oxoandrosta-1,4-diene-17β-carbothioate,17-propionate]",post-treatment geometric mean urinary cortisol excreted,18.5 µg
